This is an account of results in US20250388550A1, “SALTS OF AN ANTIOXIDANT AND CRYSTALLINE FORMS THEREOF” (Mironova Labs, Inc., priority 2022, published 2025).

The term solubility denotes the dissolved amount per volume that the medium holds.

Data set [1] in a line: Slurry interconversion experiments of Forms A and C. In kind it is physicochemical. The following applies: for Interconversion result (form): EtOH, 75° C.; for Relative thermodynamic stability of the anhydrate forms: Form A versus Form C, at the temperatures evaluated. As for the experimental part:
The choice of solvent affects the kinetics of polymorph conversion and not the thermodynamic relationship between polymorphic forms (Gu, CH., Young, V. Jr., Grant, DJ. J. Pharm. Sci 2001; 90 (11): 1878-1890).
Slurry interconversion experiments in ethanol (at 75° C.) and methanol (at room temperature) were still attempted to confirm the thermodynamic relationship between Forms A and C (Table 18).

A short description of data set [2]: Competitive water activity trituration experiments at room temperature. In kind it is physicochemical. The text has this:
Water activity is related to relative humidity in that RH %=aw×100. Therefore, it is possible to directly relate the stability of an anhydrous/hydrate system in slurry experiments to solid state stability.
(§1) The effect of relative humidity (RH) and water activity (aw) on the hydration state of L-Ergothioneine was investigated through both static exposure to different relative humidity (Table 17 and Table 18) and competitive water activity trituration experiments at room temperature (Table 20). The resulting solids were characterized by XRPD. These experiments were used to establish the relative humidity ranges for form stability of the thermodynamically stable anhydrate Form A and Form B Dihydrate. The critical water activity between the anhydrate and the dihydrate falls between 0.76 and 0.85 aw. This range is consistent with the DVS isotherms for both Forms A and C Anhydrate.

The nature of data set [3]: DVS moisture sorption/desorption isotherm. In kind it is physicochemical. As for the experimental part: Moisture sorption/desorption data were collected on a VTI SGA-100 Vapor Sorption Analyzer. Samples were not dried prior to analysis. Sorption and desorption data were collected over a range from 5% to 95% RH at 10% RH increments under a dry air purge. The equilibrium criterion used for analysis was less than 0.0100% weight change in 5 minutes with a maximum equilibration time of 3 hours with a 2-minute data logging interval. Data were not corrected for the initial moisture content of the samples.

A short description of data set [4]: Physical stability assessment at controlled relative humidity, form by XRPD. The format is physicochemical. The following applies: RT, 22 days.
Excerpt: Consistent with the DVS result, the critical water activity between the anhydrate and the dihydrate was tentatively determined to fall between 0.76 and 0.85 aw, above which hydration to Form B Dihydrate will occur. This is also consistent with the physical stability assessment at 33, 75, and 95% RH for 22 days; Form A Anhydrate remained Form A below the critical water activity, while hydration to Form B Dihydrate occurred above (Table 16).
as §1

A short description of data set [5]: Trituration of Form C in aqueous methanol below the critical water activity. The format is physicochemical. The following applies: 10:90 water/MeOH, aw 0.29, RT, 5 d. The protocol:
Although the dihydrate of L-Ergothioneine can form in the presence of water, aqueous methanol mixtures were utilized to enhance solubility. To avoid the dihydrate, the aqueous mixtures were prepared below the critical water activity of its formation. Form C was triturated in the aqueous mixtures and monitored for conversion to Form A by XRPD after 5 days (Table 19).

Data set [6] in a line: Hygroscopicity inferred from TGA weight loss. In kind it is physicochemical. To be noted: weight loss likely volatilization of moisture. As for the experimental part: Thermogravimetric (TG) analyses were performed using a Mettler-Toledo TGA/DSC3+ analyzer. Temperature and enthalpy adjustments were performed using indium, tin, and zinc, and then verified with indium. The balance was verified with calcium oxalate. The sample was placed in an aluminum pan. The pan was hermetically sealed, the lid pierced, and the pan was then inserted into the TG furnace. A weighed aluminum pan configured as the sample pan was placed on the reference platform. The furnace was heated under nitrogen. Samples were analyzed from 25° C. to 350° C. at 10° C./min. Thermogravimetric analyses typically experience a period of equilibration at the start of each analysis, indicated by red parentheses on the thermograms. The starting temperature for relevant weight loss calculations is selected at a point beyond this region (typically above 35° C.) for accuracy. DSC analysis on this instrument is less sensitive than on the DSC3+ differential scanning calorimeter. Therefore, in certain embodiments, samples with sufficient solids were analyzed by both instruments and the TGA thermogram from Mettler-Toledo TGA/DSC3+ analyzer is reported below.
The final endotherm with an onset of 234° C. is likely from concomitant melt and decomposition.
Thermal decomposition (FIG. 20), which caused the material to expand out of the pan, was evident above this temperature.

A further data set in a line: physchem. To be noted: 60 °C, organic solvent or mixture. In kind it is physicochemical. The protocol: The approximate solubility of the L-Ergothioneine Form A/B mixture in various solvents was determined (Table 2).
On data set [7], the source says: It cannot be predicted in advance whether a compound exists in one or more solid forms, or whether the properties of the solid form are advantageous for manufacturing and pharmaceutical formulation.
Data set [8] in a line: Observation of isolated solid on removal from nitrogen stream. In kind it is physicochemical. To be noted: upon removal from the nitrogen stream. As for the experimental part: L-Ergothioneine calcium chloride Material A was obtained by heating a slurry of 173.9 mg of L-Ergothioneine Form A/B in 1 mL of water to 65° C. A faint turbid solution was afforded with the addition of 110.5 mg of calcium chloride to the slurry. The sample was refrigerated for 3 days and became clear. The clear solution was evaporated to dryness under nitrogen.

As to `C[N+](C)(C)C(Cc1cnc(S)[nH]1)C(=O)[O-]` [Forms A and C, L-Ergothioneine], the “Interconversion result (form)” value in data set [1] (14 days) is “A + C”; in data set [1] (28 days) it was “A + C (minor)”. Moreover, the “Water activity experiment result (form)” value is on record as “B + A + C + anotherform” in data set [2] (15:85 water/MeOH, aw 0.39, RT, 8 d); “B + A + C” in data set [2] (20:80 water/MeOH, aw 0.47, RT, 8 d); “A + B” in data set [2] (20:80 water/MeOH, aw 0.47, RT, 14 d); “B (PO)” in data set [2] (70:30 water/MeOH, aw 0.86, RT, 13 d); “A + B + anotherform” in data set [2] (solvent, aw and method cells empty, lines below 50:50 water/MeOH, aw 0.76).

In the case of `C[N+](C)(C)C(Cc1cnc(S)[nH]1)C(=O)[O-]` [L-Ergothioneine Form A Anhydrate, L-Ergothioneine, reference compound], the “Relative thermodynamic stability of the anhydrate forms” value in data set [1] (listed as Form A) is reported as “more thermodynamically stable form”. Also, the “Hygroscopicity (DVS)” value in [3] (above 85% RH) is reported as “significant hygroscopicity”; in data set [3] (from 5 to 85% RH, listed as Form A) it was “low hygroscopicity”.

In the case of `C[N+](C)(C)C(Cc1cnc(S)[nH]1)C(=O)[O-]` [L-Ergothioneine Form B Dihydrate, L-Ergothioneine], the “Physical stability, resulting form” value is “partially dehydrate to a small quantity of both Forms A and C Anhydrates” in data set [4] (33% RH); “sustained” in data set [4] (75% RH, listed as Form B Dihydrate); “sustained” in [4] (95% RH, listed as Form B Dihydrate).

For `C[N+](C)(C)C(Cc1cnc(S)[nH]1)C(=O)[O-]` [L-Ergothioneine Form C Anhydrate, L-Ergothioneine], the “Physical stability, resulting form” value in data set [4] (75% RH) is “Form C”; in data set [4] (95% RH) it was “Form B”. Besides, the “Relative thermodynamic stability of the anhydrate forms” value in [1] (listed as Form C Anhydrate) is reported as “thermodynamically metastable relative to Form A”. Moreover, in data set [5], the “Trituration result (form by XRPD)” value was “A + C (minor)”. In data set [3] (at 5% RH), the “Weight loss upon equilibration” value turned out to be 0.3 wt %. Further, the Water gain equivalent result in data set [3] (at 95% RH) is given as “more than 1.5 mol/mol”. The “Weight gain during sorption cycle” value is reported as “more than 10.9 wt %” in [3] (at 95% RH, equilibrium not achieved) and “approximately 0.9 wt %” in data set [3] (up through 85% RH). In data set [3] (from 5 to 85% RH, listed as Form C), the “Hygroscopicity (DVS)” value was “limited hygroscopicity”. For the same molecule, the “Complete desorption, equivalent loss of water” value in [3] (once reaching 5% RH) turned out to be 1 mol/mol. Besides, the “Recovered material after DVS by XRPD” value in data set [3] (post-DVS) is “mixture of Form C Anhydrate, Form B Dihydrate, and another form”. The “Weight loss on desorption cycle” value in data set [3] (until reaching 75% RH) came to 5.5 wt %.

As to `C[N+](C)(C)C(Cc1c[nH]c(=S)[nH]1)C(=O)O.O=S(=O)([O-])O` [L-Ergothioneine Sulfate Form A, L-Ergothioneine sulfate], in data set [6], the “Hygroscopicity suggested by TGA weight loss” value is “hygroscopic”.

In the case of `C[N+](C)(C)C(Cc1cnc(S)[nH]1)C(=O)[O-]` [L-Ergothioneine mixture, L-Ergothioneine], in the data set “physchem”, the solubility is < 2000 µg/mL.

In the case of `C[N+](C)(C)C(Cc1cnc(S)[nH]1)C(=O)[O-]` [L-Ergothioneine phosphoric acid], in data set [7], the “Solubility in polar protic solvents” value is “low solubility”. Moreover, the “Hygroscopicity suggested by TGA weight loss” value in [6] is “hygroscopic”.

As to L-Ergothioneine calcium chloride, in data set [8], the Deliquescence entry is given as “appeared to deliquesce”.
